According to ChEMBL document CHEMBL1201862, “PubChem BioAssay data set” (2004):
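The compound was tested at five concentrations on cells cultured in 96-well plates, with a 48-hour exposure period. GI50 is the concentration that inhibits growth by half.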 Activity calls are given as the source filed them. Rule as the data show it: active = GI50 up to about 1.1 µM and inactive = higher.

What was measured:
Assay in all cases: NCI-60 cell line screen, 48 h
HT-29 = system: HT-29
NCI-H460 = system: NCI-H460
TK-10 = system: TK-10
M14 = system: M14
RPMI-8226 = system: RPMI-8226
U-251 = system: U-251
SW-620 = system: SW-620
NCI-H522 = system: NCI-H522
HCT-15 = system: HCT-15
UACC-257 = system: UACC-257
Hs-578T = system: Hs-578T
HL-60 = system: HL-60
MOLT-4 = system: MOLT-4
OVCAR-8 = system: OVCAR-8
CAKI-1 = system: CAKI-1
RXF 393 = system: RXF 393
PC-3 = system: PC-3
SK-MEL-28 = system: SK-MEL-28
Malme-3M = system: Malme-3M
NCI-H23 = system: NCI-H23
A549 = system: A549
MDA-N = system: MDA-N
786-0 = system: 786-0
COLO 205 = system: COLO 205
HCC 2998 = system: HCC 2998
SF-295 = system: SF-295
HOP-92 = system: HOP-92
OVCAR-5 = system: OVCAR-5
HCT-116 = system: HCT-116
EKVX = system: EKVX
SK-OV-3 = system: SK-OV-3
SK-MEL-2 = system: SK-MEL-2
SF-268 = system: SF-268
LOX IMVI = system: LOX IMVI
KM12 = system: KM12
OVCAR-3 = system: OVCAR-3
OVCAR-4 = system: OVCAR-4
DU-145 = system: DU-145
NCI-H226 = system: NCI-H226
CCRF-CEM = system: CCRF-CEM
SF-539 = system: SF-539
NCI/ADR-RES = system: NCI/ADR-RES
A498 = system: A498
ACHN = system: ACHN
SNB-75 = system: SNB-75
HOP-62 = system: HOP-62
UO-31 = system: UO-31
SK-MEL-5 = system: SK-MEL-5
IGROV-1 = system: IGROV-1
SNB-19 = system: SNB-19
MDA-MB-231 = system: MDA-MB-231
SN12C = system: SN12C
MCF7 = system: MCF7
T47D = system: T47D
K562 = system: K562

CC(=O)ONC(C(=O)C(C)(C)C)C(=O)C(C)(C)C
GI50 (HT-29): > 100 µM (inactive) | GI50 (NCI-H460): > 100 µM (inactive) | GI50 (TK-10): > 100 µM (inactive) | GI50 (M14): > 100 µM (inactive) | GI50 (RPMI-8226): > 100 µM (inactive) | GI50 (U-251): > 100 µM (inactive) | GI50 (SW-620): > 100 µM (inactive) | GI50 (NCI-H522): > 100 µM (inactive) | GI50 (HCT-15): > 100 µM | GI50 (UACC-257): > 100 µM (inactive) | GI50 (Hs-578T): > 100 µM (inactive) | GI50 (HL-60): > 100 µM (inactive) | GI50 (MOLT-4): > 100 µM (inactive) | GI50 (OVCAR-8): > 100 µM (inactive) | GI50 (CAKI-1): > 100 µM (inactive) | GI50 (RXF 393): > 100 µM (inactive) | GI50 (PC-3): > 100 µM (inactive) | GI50 (SK-MEL-28): > 100 µM (inactive) | GI50 (Malme-3M): > 100 µM (inactive) | GI50 (NCI-H23): > 100 µM (inactive) | GI50 (A549): > 100 µM (inactive) | GI50 (MDA-N): > 100 µM (inactive) | GI50 (786-0): > 100 µM (inactive) | GI50 (COLO 205): > 100 µM (inactive) | GI50 (HCC 2998): > 100 µM (inactive) | GI50 (SF-295): > 100 µM (inactive) | GI50 (HOP-92): > 100 µM (inactive) | GI50 (OVCAR-5): > 100 µM (inactive) | GI50 (HCT-116): > 100 µM (inactive) | GI50 (EKVX): > 100 µM (inactive) | GI50 (SK-OV-3): > 100 µM (inactive) | GI50 (SK-MEL-2): > 100 µM (inactive) | GI50 (SF-268): > 100 µM (inactive) | GI50 (LOX IMVI): > 100 µM (inactive) | GI50 (KM12): > 100 µM (inactive) | GI50 (OVCAR-3): > 100 µM (inactive) | GI50 (OVCAR-4): > 100 µM (inactive) | GI50 (DU-145): > 100 µM (inactive) | GI50 (NCI-H226): > 100 µM (inactive) | GI50 (CCRF-CEM): > 100 µM (inactive) | GI50 (SF-539): > 100 µM (inactive) | GI50 (NCI/ADR-RES): > 100 µM (inactive) | GI50 (A498): > 100 µM (inactive) | GI50 (ACHN): > 100 µM (inactive) | GI50 (SNB-75): > 100 µM (inactive) | GI50 (HOP-62): > 100 µM (inactive) | GI50 (UO-31): > 100 µM (inactive) | GI50 (SK-MEL-5): > 100 µM (inactive) | GI50 (IGROV-1): > 100 µM (inactive) | GI50 (SNB-19): > 100 µM (inactive) | GI50 (MDA-MB-231): > 100 µM (inactive) | GI50 (SN12C): > 100 µM (inactive) | GI50 (MCF7): > 100 µM (inactive) | GI50 (T47D): > 100 µM (inactive) | GI50 (K562): > 100 µM (inactive)

COc1cccc(/C=C/c2ccc(S(N)(=O)=O)cc2)c1
GI50 (NCI-H460): 10.3 µM (inactive) | GI50 (TK-10): 12.5 µM (inactive) | GI50 (M14): 36.1 µM (inactive) | GI50 (UACC-257): 16.4 µM (inactive) | GI50 (RXF 393): 5.5 µM (inactive) | GI50 (PC-3): 22.7 µM (inactive) | GI50 (SK-MEL-28): 44 µM (inactive) | GI50 (Malme-3M): 23.2 µM (inactive) | GI50 (MDA-N): 17 µM (inactive) | GI50 (786-0): 17.8 µM (inactive) | GI50 (COLO 205): 11.7 µM (inactive) | GI50 (HCC 2998): 10.5 µM (inactive) | GI50 (SF-295): 6.75 µM (inactive) | GI50 (OVCAR-5): 59.4 µM (inactive) | GI50 (HCT-116): 7.36 µM (inactive) | GI50 (EKVX): 11.8 µM (inactive) | GI50 (SK-OV-3): 30.4 µM (inactive) | GI50 (SK-MEL-2): 5.9 µM (inactive) | GI50 (OVCAR-3): 5.31 µM (inactive) | GI50 (DU-145): 26.1 µM (inactive) | GI50 (NCI/ADR-RES): 23.1 µM (inactive) | GI50 (SNB-75): 17.4 µM (inactive) | GI50 (HOP-62): 24 µM (inactive) | GI50 (UO-31): 18.6 µM (inactive) | GI50 (SK-MEL-5): 17.1 µM (inactive) | GI50 (SNB-19): 46.6 µM (inactive) | GI50 (MDA-MB-231): 25.1 µM (inactive) | GI50 (SN12C): 18.2 µM (inactive) | GI50 (MCF7): 8.07 µM (inactive) | GI50 (T47D): 4.94 µM (inactive)
